The target of one assay is T1, human TRPM8 (Homo sapiens, UniProt Q7Z2W7). Kind of assay: High-throughput FLIPR TETRA calcium fluorescence assay for TRPM8 antagonists in HEK293/hTRPM8 cells. The class given is cell-based. On the set-up: expressed in transfected cells. As to conditions: agonist Cooling Agent 10 at EC80, Ca2+ fluorescence. The text has this: A functional cell-based assay for the identification of TRPM8 receptor antagonists, optimised to allow high throughput screening at FLIPR^TETRA, was developed in HEK293 cells by stable pure clone selection and functional characterization with a fluorescent calcium sensitive dye.
T1 sequence (Q7Z2W7 whole entry): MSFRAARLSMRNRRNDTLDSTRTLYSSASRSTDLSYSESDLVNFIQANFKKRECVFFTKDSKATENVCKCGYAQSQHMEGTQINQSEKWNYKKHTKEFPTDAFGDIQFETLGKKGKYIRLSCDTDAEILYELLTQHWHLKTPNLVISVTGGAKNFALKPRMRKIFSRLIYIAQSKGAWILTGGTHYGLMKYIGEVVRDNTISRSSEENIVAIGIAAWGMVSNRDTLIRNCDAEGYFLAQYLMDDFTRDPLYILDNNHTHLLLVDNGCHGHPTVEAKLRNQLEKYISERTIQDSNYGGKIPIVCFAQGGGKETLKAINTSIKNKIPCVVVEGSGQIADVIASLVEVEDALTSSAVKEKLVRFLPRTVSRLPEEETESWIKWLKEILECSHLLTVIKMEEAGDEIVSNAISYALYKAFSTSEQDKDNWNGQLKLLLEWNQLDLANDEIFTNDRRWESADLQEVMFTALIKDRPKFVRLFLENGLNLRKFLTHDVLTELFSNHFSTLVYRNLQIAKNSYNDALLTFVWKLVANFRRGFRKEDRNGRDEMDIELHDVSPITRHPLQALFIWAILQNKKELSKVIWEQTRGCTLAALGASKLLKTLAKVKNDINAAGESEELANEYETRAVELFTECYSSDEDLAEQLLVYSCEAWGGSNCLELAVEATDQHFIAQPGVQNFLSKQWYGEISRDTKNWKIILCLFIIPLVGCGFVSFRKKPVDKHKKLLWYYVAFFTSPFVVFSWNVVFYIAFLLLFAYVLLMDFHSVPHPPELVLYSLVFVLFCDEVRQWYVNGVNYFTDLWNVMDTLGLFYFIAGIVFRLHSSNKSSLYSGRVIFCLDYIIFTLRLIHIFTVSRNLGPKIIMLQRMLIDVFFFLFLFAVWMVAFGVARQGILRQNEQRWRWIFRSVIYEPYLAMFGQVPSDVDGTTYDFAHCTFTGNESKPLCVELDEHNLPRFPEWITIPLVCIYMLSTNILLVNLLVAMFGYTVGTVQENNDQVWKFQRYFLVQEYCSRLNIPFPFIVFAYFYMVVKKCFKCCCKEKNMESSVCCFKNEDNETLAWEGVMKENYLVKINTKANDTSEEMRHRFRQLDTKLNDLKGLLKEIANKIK
TRPM8 was cloned into the multiple clonig site of pcDNA3 mammalian expression vector; the obtained construct pcDNA3/hTRPM8 was fully sequence verified and used for the transfection of HEK293 cell line. HEK293 cells stably transfected with TRPM8 gene were maintained in Minimum essential medium. The cells were transfected with the pcDNA3/hTRPM8 vector by electroporation and then selected with medium containing 0.8 mg/ml G418 for 10-15 days.
The following commercial compounds were used as ligands: • Activator: Cooling Agent 10 (Takasago CAS N. 87061-04-9) • Blocker: Capsazepine (SIGMA cat #D—5879)
The experimental activities were performed using FLIPR^TETRA instruments.
HEK293 cells stably transfected with TRPM8 gene were maintained in Minimum essential medium.
The TRPM8 cell line was analysed for the response to a library of compounds using a Ca^2+ mobilization-dependent fluorescence signal in 384 wells microtiter plate format. The analysis was performed using the FLIPR^TETRA (MDC) with the ICCD Camera.
The execution of the assay involved the use of three microtiter plates:
1. Assay plate, containing cells loaded with dye and prepared as follows:
Cells were seeded at 15000 c/well in Poly-D-Lysine coated 384 wells Microtiter Plates in complete medium (25 μl/well).
24 h after seeding, the cell plates were washed with Tyrode assay buffer by the Microplate Washer and 10 μL of Tyrode assay buffer was left in each well.
Cells were then loaded with 10 μL/well of the Fluo-4 NW dye solution by CyBi®-Well pipettor. Each bottle of Fluo4-NW dye (Molecular Probes cat. #F36206, component A) was re-suspended in 8 mL of Tyrode assay buffer and supplemented with 100 μL of water-soluble probenecid (MolecularProbes cat.#F36206, component B).
Dye loaded cell plates were incubated for 1 h at room temperature.
2. Compound Dilution Plate (FIG. 1), containing diluted test compounds, formulated as follows: • Column 1: wells containing Assay Buffer plus DMSO 0.5% final • Column 2: wells alternating Max Signal Control in first injection (Maximum Response: Cooling Agent 10 at EC100, 100 μM) and Min Signal Control in first injection (Assay buffer plus 0.5% DMSO final); • Columns 3-22: wells containing Assay Buffer plus 0.5% DMSO final. To these wells the compounds to be tested were added at 3× concentration. • Column 23: alternating wells of Max Signal Control in second injection (Assay buffer) and Min Signal Control in second injection (Antagonist Capsazepine IC100, 50 μM) in Assay buffer plus 0.5% DMSO final; • Column 24: wells containing Capsazepine (Antagonist) at 8 concentrations in duplicate at final concentrations of […] in Assay buffer plus 0.5% DMSO final.
3. Activator Plate (FIG. 2), containing agonist Cooling Agent 10 at EC80, formulated as follows: • Column 1: Cooling Agent 10 (Agonist) at 8 concentrations dose response in duplicate at final concentrations of […] in Assay buffer; • Columns 2-24: Cooling Agent 10 (Agonist) at EC80 (3 fold concentrated, 20 μM final) in Assay buffer.
The test was carried out according to a procedure comprising the following steps: • 1. The samples contained in the wells of the Compound Plate were added to the corresponding wells of the Assay Plate by the FLIPR^TETRA, thus resulting in the addition in Columns 3-22 of the test compounds at 3× concentration to the cells of the assay plates. No mixing was performed in the assay wells and the signal of the emitted fluorescence was recorded for 300 seconds. • 2.
Broadly, the IC50 is the concentration at which inhibition is half-maximal. For `Clc1c(OCCNCc2cccs2)ccc2ccccc12` [Compound 5, 2-[(1-chloronaphthalen-2-yl)oxy]-N-(thiophen-2-ylmethyl)ethanaminium], the IC50 was less than 10 µM.
Same read-out and setting: next, `Clc1c(OCCNCc2ccccn2)ccc2ccccc12` [Compound 6, 2-[(1-chloronaphthalen-2-yl)oxy]-N-(pyridin-2-ylmethyl)ethanaminium]: less than 10 µM.
Same read-out and setting: in the case of `CC(C)(COc1ccc2ccccc2c1Cl)NCc1ccco1` [Compound 8, 1-[(1-chloronaphthalen-2-yl)oxy]-N-(furan-2-ylmethyl)-2-methylpropan-2-amine] it was less than 10 µM; in that of `CC(C)(COc1ccc2ccccc2c1Cl)NCc1ccccn1` [Compound 13, 1-[(1-chloronaphthalen-2-yl)oxy]-2-methyl-N-(pyridin-2-ylmethyl)propan-2-amine], less than 10 µM; in that of `Cn1cccc1CNC(C)(C)COc1ccc2ccccc2c1Cl` [Compound 14, 1-[(1-chloronaphthalen-2-yl)oxy]-2-methyl-N-[(1-methyl-1H-pyrrol-2-yl)methyl]propan-2-amine], less than 10 µM.
Still for that read-out and setting: in the case of `O=S(=O)(CCNCc1ccco1)c1ccc2ccccc2c1Cl` [Compound 25, 2-[(1-chloronaphthalen-2-yl)sulfonyl]-N-(furan-2-ylmethyl)ethanamine] it was less than 10 µM.
For the compound `Clc1c(CCCNCc2ccco2)ccc2ccccc12` [Compound 32, 3-(1-chloronaphthalen-2-yl)-N-(furan-2-ylmethyl)propan-1-amine], the IC50 is less than 10 µM.
Consider `Cc1ccc(CNCCCc2ccc3ccccc3c2Cl)o1` [Compound 33, 3-(1-chloronaphthalen-2-yl)-N-[(5-methylfuran-2-yl)methyl]propan-1-amine], for which the half-maximal inhibitory concentration (IC50) is less than 10 µM.
Consider `Clc1ccc(CNCCCc2ccc3ccccc3c2Cl)o1` [Compound 34, N-[(5-chlorofuran-2-yl)methyl]-3-(1-chloronaphthalen-2-yl)propan-1-amine], for which the IC50 was less than 10 µM.
As to `Clc1ccc(CNCCCc2ccc3ccccc3c2Cl)s1` [Compound 35, 3-(1-chloronaphthalen-2-yl)-N-[(5-chlorothiophen-2-yl)methyl]propan-1-amine], the IC50 was less than 10 µM.
The same measure, in the same setting: next, `Fc1c(OCCNCc2ccco2)ccc2ccccc12` [Compound 48, 2-[(1-fluoronaphthalen-2-yl)oxy]-N-(furan-2-ylmethyl)ethanamine]: less than 10 µM; `Fc1c(OCCNCc2cccs2)ccc2ccccc12` [Compound 52, 2-[(1-fluoronaphthalen-2-yl)oxy]-N-(thiophen-2-ylmethyl)ethanamine]: less than 10 µM; `Fc1c(OCCNCc2ccccn2)ccc2ccccc12` [Compound 53, 2-[(1-fluoronaphthalen-2-yl)oxy]-N-(pyridin-2-ylmethyl)ethanamine]: less than 10 µM.
Still for that read-out and setting: next, `N#Cc1ccc2c(Cl)c(OCCNCc3ccccn3)ccc2c1` [Compound 55, 5-chloro-6-{2-[(pyridin-2-ylmethyl)amino]ethoxy}naphthalene-2-carbonitrile]: less than 10 µM; `N#Cc1ccc2c(Cl)c(OCCNCc3cccs3)ccc2c1` [Compound 60, 5-chloro-6-{2-[(thiophen-2-ylmethyl)amino]ethoxy}naphthalene-2-carbonitrile]: less than 10 µM.

For the next assay, the target named is T1, human TRPM8. The assay is described as follows: FLIPR384 capsazepine antagonist activity on menthol agonist response in selected TRPM8 clone. On the set-up: expressed in transfected cells. The class given is cell-based. As to conditions: FLIPR384, antagonist from 100 nM to 316 μM. The protocol:
The experimental activities were performed using FLIPR instruments.
Patch clamp recordings were also obtained in voltage-clamp configuration on HEK/TRPM8 clones in order to verify the receptor pharmacology and to determine the agonist dose-response curve and EC50 value. HEK293 cells were […] having 1.5-2.5 MΩ resistance were used to record currents following drug application. […] No menthol-induced currents were recorded in non transfected HEK293 cells.
`Oc1cc2c(cc1O)CN(C(=S)NCCc1ccc(Cl)cc1)CCC2` [capsazepine, Capsazepine]: the IC50 came out at 20 µM.

For the origin of these results see patent US8906946B2, “TRPM8 receptor antagonists” (Dompe' S.p.A., priority 2011, dated 2014).
